# Read-outs that look alike come from different tables or passages of the source.
# Tests used:
# CYP3A = experiment: Calculated metabolic clearance of microdosed midazolam (limited sampling AUC 2-4 h); details: for midazolam metabolic clearance, % of the baseline value: during fluconazole
# Experimental: (§1) Blood samples were centrifuged for 10 min at 2500 g and 4 °C, and separated plasma was distributed into 4 aliquots, each stored at − 20 °C until analysis.
# Midazolam concentrations in plasma were determined by UPLC-MS/MS.
# CYP3A4 = details: cited from earlier work
# [1] = alteration of gastric pH; cited from earlier work
# CYP2C19 [2] = details: cited from earlier work
# CYP2C19 [3] = experiment: clinical; details: human, in vivo; for Cl/F / Tmax: po
# Experimental: This was an open-label clinical trial with fixed sequence design consisting of a total of seven inpatient study days and eight short visits for each participant.
# The CYP2C19 perpetrator fluconazole (Fluconazol HEXAL® 200 mg, HEXAL) was given for 5 days in oral doses of 400 mg on day 1 and 200 mg on days 2 to 5. […] A diary was used to ensure correct intake of fluconazole and rifampicin at home.
# as §1
# The statistical analysis was performed using Prism 8.4 (GraphPad Software Inc., La Jolla, CA, USA).
# [4] = cited from earlier work
structure (smiles),measurement,setting,value
Cc1ncc2n1-c1ccc(Cl)cc1C(c1ccccc1F)=NC2 [midazolam],"midazolam metabolic clearance, % of the baseline value",CYP3A; with 100 µg omeprazole,28%
same,"midazolam metabolic clearance, % of the baseline value",CYP3A; with 20 mg omeprazole,26%
same,increase of midazolam metabolic clearance,CYP3A; during rifampicin,10–12 fold
same,increase of midazolam metabolic clearance,CYP3A; rifampicin day 5,10.1 fold
same,increase of midazolam metabolic clearance,CYP3A; rifampicin day 7,11.9 fold
same,midazolam AUC decrease to % of the baseline value,CYP3A4; 600 mg rifampicin daily over 5 days,4.1%
same,increase of midazolam AUC,CYP3A4; oral 7.5 mg midazolam during fluconazole treatment,3.6 fold
Cc1c(O)cccc1C(=O)N[C@@H](CSc1ccccc1)[C@H](O)CN1C[C@H]2CCCC[C@H]2C[C@H]1C(=O)NC(C)(C)C [nelfinavir],reduction of nelfinavir AUC by omeprazole,[1],approximately one third
same,reduction of nelfinavir Cmax by omeprazole,[1],approximately one third
COc1ccc2[nH]c([S+]([O-])Cc3ncc(C)c(OC)c3C)nc2c1 (stereo not shown) [omeprazole],increase of omeprazole AUC,"CYP2C19 [2]; 100 mg fluconazole daily for 5 days, healthy volunteers",sixfold
same,increase of omeprazole AUC,CYP2C19 [2]; 8 days of 50 mg fluconazole daily,2.7–2.8 fold
same,omeprazole AUC decreased to,"CYP2C19 [2]; rifampicin 150 mg, 8 days, omeprazole microdose",22%
same,omeprazole AUC decreased to,"CYP2C19 [2]; rifampicin 150 mg, 9 days, 20 mg omeprazole",20%
same,omeprazole AUC decreased to,"CYP2C19 [2]; rifampicin 6 days, 450 mg daily, 20 mg omeprazole",12.9%
same,bioequivalence to an encapsulated formulation,CYP2C19 [2]; uncoated omeprazole with 48 mmol sodium bicarbonate,bioequivalent
same,dose-normalized Cmax,CYP2C19 [3],896 ng/mL
same,clearance,"CYP2C19 [3]; 100 ug, omeprazole clearance",476 mL/min
same,higher AUC in the poor metabolizer in comparison with the EM group,CYP2C19 [3]; 20 mg,6.5 fold
same,higher Cmax in the poor metabolizer in comparison with the EM group,CYP2C19 [3]; 20 mg,threefold
same,Cl/F,CYP2C19 [3]; 100 ug,379 mL/min
same,Tmax,CYP2C19 [3]; 100 ug,21.8 min
same,Tmax,"CYP2C19 [3]; 100 ug, tmax (harmonic mean)",15 min
same,Cl/F,CYP2C19 [3]; 20 mg,388 mL/min
same,Tmax,"CYP2C19 [3]; 20 mg, tmax (harmonic mean)",178 min
OC(Cn1cncn1)(Cn1cncn1)c1ccc(F)cc1F [fluconazole],"effect of changes in gastric pH on fluconazole Cmax, tmax, and AUC",[4],did not affect

# — article PMC9107402 (European Journal of Clinical Pharmacology, 2022)
